By Kd is commonly meant the equilibrium constant for the complex coming apart.

Drawing on ChEMBL document CHEMBL3991601, “The target landscape of clinical kinase drugs” (Science, 2017), this text covers Kd for 22 compounds.

The source made the active and inactive calls.

One experiment deals with Adenosine kinase (Homo sapiens, UniProt P55263).
The target in a further experiment is DNA topoisomerase 2-beta (Homo sapiens, UniProt Q02880).
In experiment [1] the target is Mitogen-activated protein kinase 9 (Homo sapiens, UniProt P45984).
Experiment [2] has as its target T1, Mitogen-activated protein kinase kinase kinase kinase 3 (Homo sapiens, UniProt Q8IVH8).
T1 sequence (Q8IVH8 whole entry): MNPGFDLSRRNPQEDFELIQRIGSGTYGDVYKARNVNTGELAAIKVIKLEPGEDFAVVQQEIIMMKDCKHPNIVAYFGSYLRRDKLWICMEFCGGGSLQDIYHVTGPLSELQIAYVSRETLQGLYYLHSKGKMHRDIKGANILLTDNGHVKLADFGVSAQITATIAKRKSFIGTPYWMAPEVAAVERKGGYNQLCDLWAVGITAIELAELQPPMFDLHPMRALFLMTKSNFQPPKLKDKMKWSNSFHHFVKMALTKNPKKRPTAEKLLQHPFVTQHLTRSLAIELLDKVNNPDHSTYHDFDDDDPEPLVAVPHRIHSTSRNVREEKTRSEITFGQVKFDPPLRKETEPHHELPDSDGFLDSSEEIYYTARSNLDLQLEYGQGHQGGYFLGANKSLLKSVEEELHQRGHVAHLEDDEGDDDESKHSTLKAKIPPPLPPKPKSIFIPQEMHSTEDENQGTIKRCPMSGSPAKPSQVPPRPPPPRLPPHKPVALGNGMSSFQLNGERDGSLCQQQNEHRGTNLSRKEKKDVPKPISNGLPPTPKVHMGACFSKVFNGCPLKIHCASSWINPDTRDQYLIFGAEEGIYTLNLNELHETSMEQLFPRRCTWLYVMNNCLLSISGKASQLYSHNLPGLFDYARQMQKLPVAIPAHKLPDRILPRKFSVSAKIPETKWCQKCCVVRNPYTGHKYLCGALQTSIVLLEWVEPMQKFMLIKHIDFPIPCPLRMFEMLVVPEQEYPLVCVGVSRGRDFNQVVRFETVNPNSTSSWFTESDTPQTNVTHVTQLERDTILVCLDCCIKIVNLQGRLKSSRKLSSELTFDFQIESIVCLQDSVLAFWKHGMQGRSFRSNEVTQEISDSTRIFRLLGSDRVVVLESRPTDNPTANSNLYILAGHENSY

Experiment [3] has as its target T2, Serine/threonine-protein kinase NLK (Homo sapiens, UniProt Q9UBE8).
T2 sequence (Q9UBE8 whole entry): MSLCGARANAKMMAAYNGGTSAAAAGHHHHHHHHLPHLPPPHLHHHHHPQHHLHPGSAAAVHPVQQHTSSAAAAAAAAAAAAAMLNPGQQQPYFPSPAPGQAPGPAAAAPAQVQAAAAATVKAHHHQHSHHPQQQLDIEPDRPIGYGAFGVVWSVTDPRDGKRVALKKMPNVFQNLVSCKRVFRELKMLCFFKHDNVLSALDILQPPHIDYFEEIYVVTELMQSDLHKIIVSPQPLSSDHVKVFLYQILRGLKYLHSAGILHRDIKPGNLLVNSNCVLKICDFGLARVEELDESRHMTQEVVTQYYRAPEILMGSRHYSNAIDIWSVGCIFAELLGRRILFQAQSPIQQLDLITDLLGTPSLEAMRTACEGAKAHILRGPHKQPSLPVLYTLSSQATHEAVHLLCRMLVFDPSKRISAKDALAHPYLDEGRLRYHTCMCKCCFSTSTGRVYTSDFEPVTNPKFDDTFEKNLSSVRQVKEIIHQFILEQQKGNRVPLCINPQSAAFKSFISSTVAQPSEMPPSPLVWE

Experiment [4] has as its target T3, MAP/microtubule affinity-regulating kinase 4 (Homo sapiens, UniProt Q96L34).
T3 sequence (Q96L34 whole entry): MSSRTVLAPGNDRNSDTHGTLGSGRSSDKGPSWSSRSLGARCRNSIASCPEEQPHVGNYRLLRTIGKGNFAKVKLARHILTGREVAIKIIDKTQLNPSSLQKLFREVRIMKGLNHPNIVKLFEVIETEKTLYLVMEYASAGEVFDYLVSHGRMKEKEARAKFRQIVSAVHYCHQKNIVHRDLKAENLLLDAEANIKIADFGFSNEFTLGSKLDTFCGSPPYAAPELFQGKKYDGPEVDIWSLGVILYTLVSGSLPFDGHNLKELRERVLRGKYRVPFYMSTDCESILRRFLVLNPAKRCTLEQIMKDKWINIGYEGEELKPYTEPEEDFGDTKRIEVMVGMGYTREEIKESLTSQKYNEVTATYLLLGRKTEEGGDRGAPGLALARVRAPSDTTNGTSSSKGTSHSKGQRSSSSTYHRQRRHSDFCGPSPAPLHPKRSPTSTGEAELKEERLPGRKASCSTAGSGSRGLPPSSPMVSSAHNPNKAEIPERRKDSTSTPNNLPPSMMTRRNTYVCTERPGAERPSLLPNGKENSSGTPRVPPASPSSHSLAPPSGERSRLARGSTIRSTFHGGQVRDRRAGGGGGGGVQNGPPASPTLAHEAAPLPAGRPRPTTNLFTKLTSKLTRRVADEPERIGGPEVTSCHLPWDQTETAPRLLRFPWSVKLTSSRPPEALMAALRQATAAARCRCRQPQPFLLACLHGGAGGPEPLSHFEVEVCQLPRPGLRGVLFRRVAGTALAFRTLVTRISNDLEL
Also: in the data inactive means no Kd found up to 30 µM.

Sequence of Mitogen-activated protein kinase 9 (P45984 whole entry): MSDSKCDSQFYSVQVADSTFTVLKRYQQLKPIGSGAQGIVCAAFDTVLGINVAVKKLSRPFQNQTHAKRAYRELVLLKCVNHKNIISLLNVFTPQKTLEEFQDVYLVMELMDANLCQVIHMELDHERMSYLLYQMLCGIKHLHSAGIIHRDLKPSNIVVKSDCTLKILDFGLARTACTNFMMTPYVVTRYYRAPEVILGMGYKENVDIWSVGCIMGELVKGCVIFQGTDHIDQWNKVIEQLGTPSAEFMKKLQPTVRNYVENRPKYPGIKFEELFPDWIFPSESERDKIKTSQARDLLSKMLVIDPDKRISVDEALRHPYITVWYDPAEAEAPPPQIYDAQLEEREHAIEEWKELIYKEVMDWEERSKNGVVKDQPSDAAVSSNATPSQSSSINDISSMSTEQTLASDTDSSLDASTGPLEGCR
Sequence of DNA topoisomerase 2-beta (Q02880 whole entry): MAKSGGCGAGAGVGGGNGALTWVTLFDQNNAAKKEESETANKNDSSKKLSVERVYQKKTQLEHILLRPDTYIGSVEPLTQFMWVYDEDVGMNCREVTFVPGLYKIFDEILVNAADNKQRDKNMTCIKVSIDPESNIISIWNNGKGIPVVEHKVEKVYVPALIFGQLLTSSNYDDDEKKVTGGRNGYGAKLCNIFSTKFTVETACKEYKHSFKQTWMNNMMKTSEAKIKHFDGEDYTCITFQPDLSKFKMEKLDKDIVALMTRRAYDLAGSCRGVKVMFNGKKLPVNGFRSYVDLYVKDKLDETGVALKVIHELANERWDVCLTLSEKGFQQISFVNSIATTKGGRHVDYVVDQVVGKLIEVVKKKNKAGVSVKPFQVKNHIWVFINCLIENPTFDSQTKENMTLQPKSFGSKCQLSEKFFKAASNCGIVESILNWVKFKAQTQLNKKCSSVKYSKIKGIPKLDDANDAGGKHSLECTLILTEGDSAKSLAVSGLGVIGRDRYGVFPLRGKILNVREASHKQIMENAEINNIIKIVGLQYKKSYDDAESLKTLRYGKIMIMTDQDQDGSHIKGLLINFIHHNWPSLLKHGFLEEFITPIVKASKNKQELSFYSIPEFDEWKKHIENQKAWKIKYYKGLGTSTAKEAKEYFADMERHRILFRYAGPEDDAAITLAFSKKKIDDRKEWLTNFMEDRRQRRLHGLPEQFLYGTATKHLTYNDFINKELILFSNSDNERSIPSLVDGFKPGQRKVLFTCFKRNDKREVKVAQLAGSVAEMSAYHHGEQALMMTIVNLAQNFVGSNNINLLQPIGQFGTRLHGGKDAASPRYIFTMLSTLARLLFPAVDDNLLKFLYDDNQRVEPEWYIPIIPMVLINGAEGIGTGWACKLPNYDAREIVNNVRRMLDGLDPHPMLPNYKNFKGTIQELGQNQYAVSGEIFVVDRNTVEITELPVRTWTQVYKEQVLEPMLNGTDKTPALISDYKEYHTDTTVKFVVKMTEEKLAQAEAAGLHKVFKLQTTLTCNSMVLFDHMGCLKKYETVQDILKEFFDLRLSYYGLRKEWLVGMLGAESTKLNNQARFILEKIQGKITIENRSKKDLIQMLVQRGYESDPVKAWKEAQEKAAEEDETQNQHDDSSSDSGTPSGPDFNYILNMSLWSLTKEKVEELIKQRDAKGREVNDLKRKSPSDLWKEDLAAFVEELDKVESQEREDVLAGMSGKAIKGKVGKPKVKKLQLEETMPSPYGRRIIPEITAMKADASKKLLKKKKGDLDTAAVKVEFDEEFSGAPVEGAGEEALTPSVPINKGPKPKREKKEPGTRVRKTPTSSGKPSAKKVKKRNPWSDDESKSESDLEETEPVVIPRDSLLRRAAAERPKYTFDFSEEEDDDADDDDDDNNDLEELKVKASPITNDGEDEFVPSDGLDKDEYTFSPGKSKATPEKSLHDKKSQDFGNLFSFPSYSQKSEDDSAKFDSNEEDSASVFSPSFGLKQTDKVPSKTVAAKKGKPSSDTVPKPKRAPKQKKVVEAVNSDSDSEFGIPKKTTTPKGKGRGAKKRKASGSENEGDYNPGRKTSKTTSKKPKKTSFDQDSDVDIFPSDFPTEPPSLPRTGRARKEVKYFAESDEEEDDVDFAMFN
Sequence of Adenosine kinase (P55263 whole entry): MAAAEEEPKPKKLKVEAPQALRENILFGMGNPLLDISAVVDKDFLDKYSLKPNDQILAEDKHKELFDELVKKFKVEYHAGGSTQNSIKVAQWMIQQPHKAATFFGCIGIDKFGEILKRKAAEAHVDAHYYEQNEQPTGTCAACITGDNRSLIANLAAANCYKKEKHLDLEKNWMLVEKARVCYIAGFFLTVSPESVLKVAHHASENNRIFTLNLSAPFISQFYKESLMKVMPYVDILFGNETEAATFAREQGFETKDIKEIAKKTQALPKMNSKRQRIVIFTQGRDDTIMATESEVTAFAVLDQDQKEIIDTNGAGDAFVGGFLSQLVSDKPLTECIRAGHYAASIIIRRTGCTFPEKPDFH

Regarding `C[C@@H](Nc1cc(F)cc(F)c1)c1cc(C(=O)N(C)C)cc2c(=O)cc(N3CCOCC3)oc12` [AZD-8186], the Kd at Adenosine kinase was > 30 µM (inactive); at DNA topoisomerase 2-beta it was 0.936 µM (active); in experiment [1], > 30 µM (inactive); in experiment [2] it was > 30 µM (inactive); in experiment [3] it was > 30 µM (inactive); in experiment [4], > 30 µM (inactive).
As to `COc1cc(OC)c(/C=C/S(=O)(=O)Cc2ccc(OC)c(NCC(=O)O)c2)c(OC)c1` [RIGOSERTIB], the Kd (on Adenosine kinase; at DNA topoisomerase 2-beta; in experiment [1]; in experiment [2]; in experiment [3]; in experiment [4]) was > 30 µM (inactive) in each case.
Consider `C[C@@H](c1ccc2nccn2c1)n1nnc2ncc(-c3cnn(C)c3)nc21` [SAVOLITINIB], for which the Kd (at Adenosine kinase; in experiment [1]; in experiment [2]; in experiment [3]) was > 30 µM (inactive) throughout.
Turning to `CN1N=C(N)c2cn([C@@H]3O[C@H](COP(=O)(O)O)[C@@H](O)[C@H]3O)c3ncnc1c23` [TRICIRIBINE PHOSPHATE], the Kd (at Adenosine kinase; on DNA topoisomerase 2-beta; in experiment [1]; in experiment [2]; in experiment [4]) was > 30 µM (inactive) in each case.
As to `O=C(c1ccc(F)c(F)c1Nc1ccc(I)cc1F)N1CC(O)([C@@H]2CCCCN2)C1` [COBIMETINIB], the Kd (at DNA topoisomerase 2-beta; in experiment [1]; in experiment [2]; in experiment [3]; in experiment [4]) was > 30 µM (inactive) each time.
Turning to `CCS(=O)(=O)N1CC(CC#N)(n2cc(-c3ncnc4[nH]ccc34)cn2)C1` [BARICITINIB], the Kd (at Adenosine kinase; on DNA topoisomerase 2-beta; in experiment [1]; in experiment [2]; in experiment [3]) was > 30 µM (inactive) in each case.
For `Cc1nc(N)sc1-c1ccnc(Nc2ccc(N3CCOCC3)cc2)n1` [CYC-116], the Kd (at Adenosine kinase; at DNA topoisomerase 2-beta; in experiment [4]) was > 30 µM (inactive) each time.
On to `Cc1cc(Nc2cc(N3CCN(C)CC3)nc(/C=C/c3ccccc3)n2)n[nH]1` [ENMD-2076], for which the Kd (at Adenosine kinase; at DNA topoisomerase 2-beta; in experiment [2]; in experiment [3]; in experiment [4]) was > 30 µM (inactive) in each case.
Turning to `O=C(Nc1cccc(Cl)c1)Nc1ncc(CCNc2ncnc3ccsc23)s1` [SNS-314], the Kd (on Adenosine kinase; at DNA topoisomerase 2-beta; in experiment [2]; in experiment [4]) was > 30 µM (inactive) in each case.
`Nc1nc(N)c2nc(-c3cccc(O)c3)c(-c3cccc(O)c3)nc2n1` [TG100-115]: the Kd at Adenosine kinase and on DNA topoisomerase 2-beta was > 30 µM (inactive) throughout.
`CN1CCN(c2ccc3nc(-c4c(N)c5c(F)cccc5[nH]c4=O)[nH]c3c2)CC1` [DOVITINIB]: the Kd at Adenosine kinase and on DNA topoisomerase 2-beta was > 30 µM (inactive) in each case.
For `COc1cc(N2CCC(N3CCN(C)CC3)CC2)ccc1Nc1ncnc(Nc2ccccc2S(=O)(=O)C(C)C)n1` [ASP-3026], the Kd (on DNA topoisomerase 2-beta; in experiment [1]; in experiment [2]; in experiment [3]; in experiment [4]) was > 30 µM (inactive) throughout.
With `CCc1cnn2c(NCc3ccc[n+]([O-])c3)cc(N3CCCC[C@H]3CCO)nc12` [DINACICLIB], the Kd (at Adenosine kinase; on DNA topoisomerase 2-beta; in experiment [2]; in experiment [3]; in experiment [4]) was > 30 µM (inactive) each time.
Turning to `Cn1ncc(Cl)c1-c1cc(C(=O)N[C@H](CN)Cc2cccc(F)c2)sc1Cl` [AFURESERTIB], the Kd (on DNA topoisomerase 2-beta; in experiment [1]; in experiment [2]; in experiment [3]; in experiment [4]) was > 30 µM (inactive) throughout.
In the case of `OCCn1cc(-c2cnc3nnn(Cc4ccc5ncccc5c4)c3n2)cn1` [PF-04217903], the Kd (at Adenosine kinase; on DNA topoisomerase 2-beta; in experiment [2]; in experiment [3]; in experiment [4]) was > 30 µM (inactive) each time.
`N[C@@H]1CCCN(c2c(/C=C3\SC(=O)NC3=O)cccc2-c2ccccc2)C1`: the Kd (on Adenosine kinase; at DNA topoisomerase 2-beta; in experiment [1]; in experiment [2]; in experiment [3]) was > 30 µM (inactive) throughout.
For `CCn1c(-c2nonc2N)nc2c(C#CC(C)(C)O)ncc(OC[C@H]3CCCNC3)c21` [GSK-690693], the Kd at Adenosine kinase and at DNA topoisomerase 2-beta was > 30 µM (inactive) in each case.
With `COc1cc2nccc(Oc3ccc(NC(=O)NC4CC4)c(Cl)c3)c2cc1C(N)=O` [LENVATINIB], the Kd (at Adenosine kinase; at DNA topoisomerase 2-beta; in experiment [1]; in experiment [3]; in experiment [4]) was > 30 µM (inactive) throughout.
As to `Cc1cn(-c2cc(NC(=O)c3ccc(C)c(Nc4nccc(-c5cccnc5)n4)c3)cc(C(F)(F)F)c2)cn1` [NILOTINIB], the Kd at Adenosine kinase and at DNA topoisomerase 2-beta was > 30 µM (inactive) throughout.
Consider `CNC(=O)c1ccc(C)c(-n2c(C)cc(OCc3ccc(F)cc3F)c(Br)c2=O)c1` [PH-797804], for which the Kd (on Adenosine kinase; on DNA topoisomerase 2-beta; in experiment [2]; in experiment [3]; in experiment [4]) was > 30 µM (inactive) throughout.
In the case of `O=C1NC(=O)/C(=C/c2ccc3nccc(-c4ccncc4)c3c2)S1` [GSK-1059615], the Kd (at DNA topoisomerase 2-beta; in experiment [1]; in experiment [2]; in experiment [4]) was > 30 µM (inactive) each time.
Consider `CC(C)Nc1cc(-c2c[nH]c(C(=O)N[C@H](CO)c3cccc(Cl)c3)c2)c(Cl)cn1` [ULIXERTINIB], for which the Kd (on Adenosine kinase; on DNA topoisomerase 2-beta; in experiment [1]; in experiment [2]; in experiment [3]) was > 30 µM (inactive) throughout.
